Laboratory results reported in patent publication US9585957B2, “Adenosine receptor agonists and antagonists to modulate T cell responses” (THE JOHNS HOPKINS UNIVERSITY, priority 2007, dated 2017).

How the values were obtained:
[1] = tested on: 6.5 TCR transgenic T cells; assay: Anergy and LAG-3 induction in primary 6.5 TCR transgenic CD4+ T cells incubated with HA and CGS, then rechallenged; format: cell-based, mice
Description: Splenocytes and lymphocytes from A2a receptor wt or null 6.5^+ mice (see below) were harvested and enriched for CD4^+ T cells via negative selection with the CD4^+ T cell isolation kit and LS MACs column (all from Miltenyi Biotech, Auburn, Calif.). […] The T cells were rechallenged for 3-4 hours with 100 ug/mL HA class II peptide, GolgiStop (BD PharMingen) and irradiated APCs.
The cells were harvested, mRNA isolated with Trizol and cDNA was generated. RT-PCR was performed as previously described (Safford et al. Nat Immunol. 2005; 6:472-480).
Splenocytes and lymphocytes from A2a receptor wt or null, 6.5^+ mice were harvested and enriched for CD4′ T cells via negative selection with the CD4^+ T cell isolation kit and LS MACs column (all from Miltenyi Biotech, Auburn, Calif.). […] Irradiated splenocytes from mice of the same A2a receptor genotype were used as APCs, at a 10:1 ratio with T cells. After 3 days, the T cells were harvested and isolated via a ficoll gradient, washed extensively and immediately rechallenged for intracellular staining Briefly, the 1×10^5 T cells were stimulated for 3-4 hours with 5×10^5 irradiated A2a receptor wt APCs, […] HA class II peptide and a 1:1000 dilution of GolgiStop (BD PharMingen), in a total volume of […]. After the stimulation, the cells were washed, stained with anti-6.5 and anti-CD4 antibodies, permeablized and fixed, then stained with anti-IFN-y antibody. Finally, the cells were washed and IFN-y production of […], 6.5^+ T cells was analyzed by flow cytometry.

LAG-3 = LAG-3 expression by RT-PCR in 6.5+ T cells sorted from CGS-treated C3HA mice; format: in vivo; settings: T cells from CGS-treated versus vehicle-treated C3HA mice (FIG. 5a)
Description: For in vivo studies, recipient C3HA mice were given 1.2×10^6 6.5^+ donor T cells as described above. On Day 3, donor T cells were sorted and cDNA generated as above. RT-PCR was performed as previously described (Safford et al. Nat Immunol. 2005; 6:472-480).
Recipient mice are given 1.2×10^6 donor T cells as described above. On Day 4, cells from spleens and lymph nodes are harvested and pooled. They are enriched for CD4^+ T cells via negative selection using biotinylated anti-CD8 (Ly-2, 53-6.7), anti-B220 (RA3-6B2) and anti-Thy 1.2(30-H12) antibodies (all from BD Biosciences PharMingen), and MACS streptavidin microbeads and AutoMACS column (Miltenyi Biotech) to deplete CD8^+ T cells, B cells and recipient cells (Thy 1.2′). The remaining cells are then sorted on Thy 1. I and CD4 using FACSAria cell sorter to yield a CD4′, 6.5′ T cell population of greater than 95% purity. RT-PCR was performed as previously described’.

[2] = tested on: 6.5+ T cells in C3HA mice; assay: In vivo suppression: second transfer of lethal numbers of clonotypic 6.5+ T cells into surviving C3HA mice; settings: mice that survived as a result of CGS treatment; no drug at second transfer (FIG. 5d)
Description: It has been shown that mice that survive the initial transfer of donor T cells can survive subsequent transfer of higher numbers of clonotypic T cells. To determine if adenosine mediates the formation of T regulatory cells, in vivo, we gave the surviving mice from FIG. 4a a transfer of […] clonotypic T cells 4-6 weeks after the first transfer. No CGS is administered upon the second transfer.
Tests were conducted to determine if the CGS-induced clonotypic regulatory cells could protect the mice upon subsequent rechallenge with a second injection of clonotypic cells. An in vivo suppression assay was performed by adoptively transferring uniformly lethal numbers of clonotypic 6.5^+ T cells (2.5×10^6) into mice that had survived the initial adoptive transfer (and developed regulatory T cells) (FIG. 5d).

[3] = tested on: 6.5+ T cells in C3HA mice; assay: Ex vivo tolerance studies: in vitro rechallenge of T cells harvested from vehicle- or CGS-treated C3HA mice
Description: 1.2×10^6 clonotypic 6.5^+ T cells were adoptive transferred into C3HA recipient mice as described above. On the second or third day (as noted) after transfer the splenocytes and lymphocytes were harvested and pooled. 2×10^5 of the pooled cells were incubated in 96-well round bottom plates with varying concentrations of HA class II peptide for 24 hours. A portion of the supernatant were withdrawn and later assayed for IL-2 and IFN-γ productions by ELISA. The wells were then pulsed with [^3H]thymidine for 16 hours and proliferation determined by tritium incorporation, as described above. All samples were performed in triplicate.

A.E7 T cells = assay: Anergy induction in A.E7 T cells: incubation with APCs, PCC and CGS, then rechallenge without CGS; format: cell-based
Description: A.E7 is a clonotypic CD4^+, Th1 T cell clone specific for pigeon cytochrome c (PCC) and is maintained as previously described (Powell et al. J Immunol. 1999; 162:2775-2784).
Studies were conducted to determine the effects of A2a receptor stimulation on T cell function. A.E7 is a clonotypic CD4′, Th1 T cell clone specific for pigeon cytochrome c (PCC) and is maintained as previously described (Powell, J. D., Lerner, C. G. & Schwartz, R. H. Inhibition of cell cycle progression by rapamycin induces T cell clonal anergy even in the presence of costimulation. J Immunol 162, 2775-84 (1999)). A.E7s were rendered anergic with anti-CD3 or by incubation with APC, PCC and […] CGS-21680. For antibody induced anergy, 6-well plates were previously coated with anti-CD3 three hours prior to stimulation and washed with PBS. For mock stimulations, the well was not coated with anti-CD3. A.E7s were incubated in the coated well overnight at 37° C., then harvested and washed extensively and rested (24 hours for CAMP measurement, 4-6 days for proliferation and cytokine production). […] A.E7s were then isolated via a ficoll gradient, washed extensively, and immediately rechallenged for proliferation and cytokine production. To assess proliferation to PCC, T cells were extensively washed and 5×10^6 cells were added to 50×10^4 irradiated BIO.A splenocytes and increasing doses of PCC in triplicate in a 96-well flat-bottomed plate. After 48 hours, cells were pulsed with [^3H] thymidine and harvested 16 hrs later. Tritium incorporation was determined by a Packard Matrix 96 direct beta counter (Packard bioscience). For cytokine production, a 96-well round-bottom plate was preincubated with […] anti-CD3 for 3 hours. […] All conditions were done in triplicate and were cultured overnight. Supernatant was collected and assessed for cytokine levels (eBioscience for IL-2, IFN-y, TNF-a; R&D Systems for GM-CSF) as per manufacturers' instructions. For each sample, multiple dilutions of the supernatant were assayed and concentration was determined based upon the dilution that best fit the most linear aspect of the standard curve. For CD25 measurements, the cells used for cytokine production were stained with anti-CD25, harvested and measured by flow cytometry.
Next, the T cells were isolated and rechallenged with APCs and peptide in the absence of CGS (secondary stimulation).

CCNC(=O)[C@H]1O[C@@H](n2cnc3c(N)nc(NCCc4ccc(CCC(=O)O)cc4)nc32)[C@H](O)[C@@H]1O [CGS, 2-p-(2-carboxyethyl)phenethyl-amino-5-N-ethyl-carboxamidoadenosine]
IFN-γ production upon rechallenge by intracellular staining ([1]; A2a receptor Wt 6.5 T cells, HA with 1 μM CGS during primary stimulation (FIG. 3a)): hyporesponsive upon subsequent stimulation
CGS-induced anergy in A2a receptor null T cells ([1]; A2a receptor null 6.5 T cells, HA with 1 μM CGS (FIG. 3a)): resistant to CGS-induced anergy
LAG-3 expression ([1]; CD4+ 6.5+ primary T cells, irradiated APCs and HA, 1 μM CGS, 3 days, mRNA (FIG. 3b)): increase in LAG-3 expression
induction of LAG-3 with exogenous IL-2 added ([1]; CGS plus exogenous IL-2): abrogated
kinetics of LAG-3 expression in T cells (LAG-3): quicker and more robust
survival of the second adoptive transfer [2]: 100%
proliferation and cytokine production of harvested cells, two days after adoptive transfer ([3]; CGS-treated versus vehicle-treated mice, no CGS during rechallenge): equal proliferation and cytokine production
proliferation following in vitro stimulation, Day 3 ([3]; T cells from CGS-treated versus vehicle-treated mice, no CGS during rechallenge (FIG. 4b)): significant reduction in proliferation
IFN-γ production following in vitro stimulation, Day 3 ([3]; T cells from CGS-treated versus vehicle-treated mice, no CGS during rechallenge (FIG. 4c)): significant reduction
response upon rechallenge after mock induction (A.E7 T cells; 1 μM CGS during mock induction, no peptide present, rechallenge without CGS (FIG. 2a)): no effect
proliferation upon rechallenge (A.E7 T cells; 1 μM CGS with peptide during initial stimulation, rechallenge without CGS (FIG. 2b)): reduced proliferation
IFN-γ production upon rechallenge (A.E7 T cells; 1 μM CGS with peptide during initial stimulation, rechallenge without CGS (FIG. 2c)): reduced
induction of anergy in the presence of exogenous IL-2 (A.E7 T cells; peptide, exogenous IL-2 and 1 μM CGS during induction (FIGS. 2d and e)): the presence of IL-2 prevented the ability of CGS to induce anergy
